Data on 3 molecules can be found in US12029738B2, “Antiproliferative compounds and methods of use thereof” (Celgene Corporation, priority 2017, dated 2024).

pEC50, pIC50: −log10 of the molar value. Several values for one entry are separate records, joined by “and”; a condition that tells them apart may be missing. Identical values can stand only once. Like-named read-outs stand apart in the source and are kept apart here.

One test concerns the target T1, α1A adrenergic receptor (Homo sapiens, UniProt P35348).
T1 construct: host or cells: CHO cells
T1 sequence (P35348 1-466): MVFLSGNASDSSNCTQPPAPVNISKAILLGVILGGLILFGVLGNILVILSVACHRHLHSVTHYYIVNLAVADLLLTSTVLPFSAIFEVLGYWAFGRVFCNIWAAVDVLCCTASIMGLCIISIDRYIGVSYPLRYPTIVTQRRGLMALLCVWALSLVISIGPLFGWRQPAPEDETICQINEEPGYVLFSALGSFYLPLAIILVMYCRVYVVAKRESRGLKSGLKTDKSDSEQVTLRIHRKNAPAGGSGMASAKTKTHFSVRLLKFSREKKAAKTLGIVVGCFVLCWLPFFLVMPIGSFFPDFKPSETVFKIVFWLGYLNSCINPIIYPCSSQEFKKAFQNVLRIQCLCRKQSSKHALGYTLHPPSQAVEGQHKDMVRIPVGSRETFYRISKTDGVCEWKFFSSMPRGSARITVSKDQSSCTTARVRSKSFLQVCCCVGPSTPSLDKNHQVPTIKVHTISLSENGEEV
Nature of the test: α1A adrenergic receptor antagonist assay (calcium mobilization, CHO cells). The class given is cell-based. As for the experimental part: (§1) α1 Adrenergic and Dopamine D2 Receptors. Methods: Binding and functional assays for α1 adrenergic and dopamine D2 receptors were performed by Eurofins Cerep according to their methods.
Antagonist activity. The antagonistic effects of test compounds on the α1A and α1B adrenergic receptors were measured using human receptor-transfected Chinese hamster ovary (CHO) cells. Antagonist activity was determined by measuring compound effect on agonist (epinephrine)-induced calcium mobilization in the α1A receptor assay or cAMP levels in the α1B receptor assay. In these experiments, CHO cells were incubated in duplicate at room temperature with test article and epinephrine at 3 nM in the α1A receptor assays or at 3000 nM in the α1B receptor assay. Compound A was tested in the α1A receptor assay at 0.01-30 μM. […] Compound 1 and Compound 2 were assayed at 0.03 to 30 μM in the α1A receptor assay and 0.03 to 100 μM in the α1B receptor assay. In the α1A receptor assay, cytosolic calcium levels were measured fluorometrically using the fluorescent probe, Fluo4 Direct. Intracellular cAMP levels in the α1B adrenergic receptor assay were measured by homogenous time-resolved fluorescence (HTRF). The antagonism IC50 was defined as the concentration causing a half-maximum inhibition of control agonist response.

Test [1] has as its target T2, dopamine D2S receptor (Homo sapiens, UniProt P14416).
T2 construct: host or cells: HEK-293 cells (membrane homogenates)
Description: Dopamine D2S receptor radioligand binding (HEK-293). As to conditions: for inhibition at 10 µM: read-out: Dopamine D2S % Inhibition (10 μM). As for the experimental part:
as §1
Dopamine D2 Receptor. Binding at 10 μM. The binding assay evaluated the affinity of test articles for the dopamine D2 receptor in transfected human embryonic kidney (HEK)-293 cells. For determining the binding in the D2S receptor assay, test article was incubated with 0.3 nM [^3H] methylspiperone or 1 nM [^3H] 7-hydroxy-2-N,N-dipropylaminotetralin (7-OH-DPAT). [3H] Methylspiperone at 0.3 nM also was used as control ligand in the D2L binding assay. Cell membrane homogenates were incubated in duplicate at room temperature for 60 minutes with ligand in the absence or presence of test articles at 10 μM. After the incubation period, samples were filtered through glass fiber filters, the filters dried and then counted for radioactivity using a scintillation counter. Results are expressed as mean percent inhibition of control radioligand binding.
Binding IC50. To determine the binding IC50 in the D2 receptor assays, HEK-293 were tested as described above but with varying concentrations of test article. Compound A was tested at 0.01-30 μM in the D2S radioligand binding assay. […] Compound 1 was assayed at 0.03-100 μM in both the D2S and D2L assays, while Compound 2 was tested at 0.03-100 μM in the D2S assay and 0.01-100 μM in the D2L assays. The IC50 was defined as the concentration causing a half-maximum inhibition of control specific binding.

Test [2] concerns non-selective α1 adrenergic receptor. Description: α1 adrenergic receptor radioligand binding ([3H]prazosin). The note with it: rat cerebral cortex; for Adrenergic α1 (non-selective) % Inhibition (10 μM): 0.25 nM [3H]prazosin; for pIC50: [3H]prazosin. The procedure:
as §1
α1 Adrenergic Receptor. Binding at 10 μM. The binding assay evaluated the affinity of test article for the non-selective α1 adrenergic receptor in rat cerebral cortex. Membrane homogenates of cerebral cortex were incubated in duplicate for 60 minutes at room temperature with 0.25 nM [^3H]prazosin in the absence or presence of test articles at 10 μM. After the incubation period, samples were filtered through glass fiber filters, the filters dried and then counted for radioactivity using a scintillation counter. Results are expressed as mean percent inhibition of control radioligand binding.
Binding IC50. […] Compound A was tested at 0.01-30 μM. […] Compound 1 and Compound 2, the S-enantiomer of Compound 1, were assayed at 0.03-100 μM. Radioactivity was measured as described above. The IC50 was defined as the concentration causing a half-maximum inhibition of control specific binding.

The target in test [3] is T2, dopamine D2S receptor. Description: Dopamine D2S receptor agonist assay (impedance, HEK-293). Type of test: cell-based. As for the experimental part: as §1
Agonist activity. The agonism of test compounds on the dopamine D2S receptor was assessed using human receptor-transfected HEK-293 cells. Agonist activity was determined by measuring compound effect on impedance modulation. In these experiments, HEK-293 cells were incubated in duplicate at 28° C. with test article. Compound A was tested at 0.01-30 μM. […] Dopamine (3 μM) was used as an agonist control. Impedance measurements were monitored for 10 minutes after ligand addition using cellular dielectric spectroscopy. The EC50 was defined as the concentration causing a half-maximum response, compared to the control agonist (dopamine) response.

T2 sequence (P14416 1-414 isoform P14416-2): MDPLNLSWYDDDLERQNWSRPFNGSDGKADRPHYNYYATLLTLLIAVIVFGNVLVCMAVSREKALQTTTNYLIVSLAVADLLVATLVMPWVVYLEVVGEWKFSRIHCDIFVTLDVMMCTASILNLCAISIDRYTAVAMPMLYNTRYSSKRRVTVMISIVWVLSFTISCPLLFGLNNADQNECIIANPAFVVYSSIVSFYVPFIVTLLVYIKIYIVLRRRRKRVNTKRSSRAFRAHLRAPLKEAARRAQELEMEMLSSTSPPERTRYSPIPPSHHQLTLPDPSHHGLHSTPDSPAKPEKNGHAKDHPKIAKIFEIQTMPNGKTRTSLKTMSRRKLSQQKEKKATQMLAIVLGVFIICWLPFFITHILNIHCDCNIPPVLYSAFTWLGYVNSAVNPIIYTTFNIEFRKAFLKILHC

By pIC50 is commonly meant −log10 of the IC50, conventionally taken in molar units. For orientation: inhibition means the percentage by which the read-out fell short of the control. Take `N#Cc1ccc(N2CCN(Cc3ccc(COc4cccc5c4CN(C4CCC(=O)NC4=O)C5=O)cc3)CC2)c(F)c1` (racemic) [Compound 1, 4-(4-(4-(((2-(2,6-dioxopiperidin-3-yl)-1-oxoisoindolin-4-yl)oxy)methyl)benzyl)piperazin-1-yl)-3-fluorobenzonitrile]: the pIC50 on α1A adrenergic receptor is 6.01; on dopamine D2S receptor [1], 5.13; in test [2] it was 5.41. The inhibition at 10 µM at dopamine D2S receptor [1] worked out at 55%. Also, in test [2], the “Adrenergic α1 (non-selective) % Inhibition (10 μM)” value came out at 67%. In addition, at dopamine D2S receptor [3] (impedance, versus dopamine control), the “D2S Agonism EC50” value is listed as “Negative”.
One may read the pEC50 as the negative decadic logarithm of the EC50, by convention in mol/L. For the molecule `N#Cc1ccc(N2CCN(Cc3ccc(COc4cccc5c4CN([C@H]4CCC(=O)NC4=O)C5=O)cc3)CC2)c(F)c1` [Compound 2, (S)-4-(4-(4-(((2-(2,6-dioxopiperidin-3-yl)-1-oxoisoindolin-4-yl)oxy)methyl)benzyl)piperazin-1-yl)-3-fluorobenzonitrile], the pIC50 on α1A adrenergic receptor is 6.24. At dopamine D2S receptor [1], the pIC50 is about 5.70 and the inhibition at 10 µM came out at 52%. Further, in test [2], the “Adrenergic α1 (non-selective) % Inhibition (10 μM)” value is recorded as 62% and the negative logarithm of the IC50 (pIC50) is about 5.89. Moreover, the negative logarithm of the EC50 (pEC50) on dopamine D2S receptor [3] was under 5.00.
Consider `O=C1CC[C@H](N2Cc3c(OCc4ccc(CN5CCN(c6ccc(F)cc6F)CC5)cc4)cccc3C2=O)C(=O)N1` [Compound B], for which the pIC50 on α1A adrenergic receptor (epinephrine 3 nM, calcium mobilization, read-out: Antagonism IC50 α1A) was 8.19; in test [2] it was 7.62. Moreover, the “Dopamine D2S % Inhibition (10 μM)” value at dopamine D2S receptor [1] (10 μM) was 99, % and 99^a %. In test [2], the “Adrenergic α1 (non-selective) % Inhibition (10 μM)” value was 98% and 100%. In addition, the negative-log EC50 (pEC50) at dopamine D2S receptor [3] (impedance, versus dopamine control, read-out: D2S Agonism EC50) was 5.57 and 5.72.
